Results from article PMC11091967, “Silicon-Rhodamine Functionalized Evocalcet Probes Potently and Selectively Label Calcium Sensing Receptors In Vitro, In Vivo, and Ex Vivo” (ACS Pharmacology & Translational Science, 2024).
Several values for one entry are separate records, joined by “and”; a condition that tells them apart may be missing. Equal entries are not always repeated. Where two headings read alike, the source gives them in different places.

Assays:
human CaSR [1] = target: T1, human CaSR (Homo sapiens, UniProt P41180); assay: FLIPR-based functional CaSR calcium assay in HCAR cells; assay type: cell-based; conditions: for fold improvement in potency toward CaSR compared to evocalcet / fold increase in potency toward CaSR compared to the evocalcet-linker conjugate: FLIPR assay
T1 construct: host or cells: CCL39 hamster lung fibroblasts stably transfected (HCAR), Geneticin selection
T1 sequence (P41180 20-1078): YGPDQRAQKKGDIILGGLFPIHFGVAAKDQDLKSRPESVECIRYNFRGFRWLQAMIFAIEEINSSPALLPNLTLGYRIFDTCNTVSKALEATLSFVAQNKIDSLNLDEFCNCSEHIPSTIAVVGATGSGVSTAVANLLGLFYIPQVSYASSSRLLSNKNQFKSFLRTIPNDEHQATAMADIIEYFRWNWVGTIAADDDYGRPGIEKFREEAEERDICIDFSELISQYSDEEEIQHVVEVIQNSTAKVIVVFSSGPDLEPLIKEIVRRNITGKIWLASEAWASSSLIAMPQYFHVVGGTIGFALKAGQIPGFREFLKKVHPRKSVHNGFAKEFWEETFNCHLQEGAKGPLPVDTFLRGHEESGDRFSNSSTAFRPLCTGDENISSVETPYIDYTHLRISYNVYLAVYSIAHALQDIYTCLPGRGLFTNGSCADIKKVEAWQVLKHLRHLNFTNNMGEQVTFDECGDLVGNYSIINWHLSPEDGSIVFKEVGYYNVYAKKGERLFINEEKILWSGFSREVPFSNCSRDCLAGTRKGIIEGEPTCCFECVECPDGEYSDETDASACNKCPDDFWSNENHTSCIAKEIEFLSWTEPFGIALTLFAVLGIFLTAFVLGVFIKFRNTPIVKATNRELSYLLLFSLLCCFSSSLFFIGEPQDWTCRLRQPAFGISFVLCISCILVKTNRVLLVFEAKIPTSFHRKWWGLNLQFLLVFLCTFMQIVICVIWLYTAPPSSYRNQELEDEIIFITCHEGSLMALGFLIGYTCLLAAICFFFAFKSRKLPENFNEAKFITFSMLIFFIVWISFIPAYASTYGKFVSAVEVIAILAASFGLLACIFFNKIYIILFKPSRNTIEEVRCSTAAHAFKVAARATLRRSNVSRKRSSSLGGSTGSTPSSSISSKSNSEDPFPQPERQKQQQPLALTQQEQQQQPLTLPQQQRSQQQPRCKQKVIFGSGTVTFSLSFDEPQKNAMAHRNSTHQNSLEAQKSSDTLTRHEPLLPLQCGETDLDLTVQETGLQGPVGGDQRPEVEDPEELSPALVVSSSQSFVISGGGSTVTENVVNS
Method: (§1) Hamster lung fibroblasts (CCL39, CaSR−) expressing the recombinant human CaSR (HCAR, CaSR+) and nontransected controls were kindly provided by Novartis AG and were kept in standard culturing conditions (37 °C, 5% CO2) in 1/2 DMEM (Roth, 9005.1)—1/2 F-12 (Sigma, N4888–500 mL) media containing 10% FBS. Media for the HCAR cells contained 500 μg/mL Geneticin as a selection antibiotic (Thermo Fisher, 10131035). Upon reaching 90–95% confluence, cells were detached and seeded into 96-well plates (PerkinElmer, 6005182) at a concentration of 35,000 cells per well and were incubated for 24 h before the experiment. For the functional CaSR calcium assay, cells were first washed twice with HBSS medium (Sigma, H6648), and were incubated in HBSS containing 5 μM Fluo-8 AM and 0.1 mM CaCl2 for 30 min at 37 °C. Calcium transients were measured upon addition of 0.5 mM CaCl2 with the FLIPR Tetra high-throughput cellular screening systems using the 470–495 nm LED excitation and 515–575 nm bandpass emission filters. Probe solutions contained 0.5% DMSO and were added to the cells 10 min prior to the measurement. dF/F0 values were calculated as a change in the peak fluorescence value of the transient for the first 200 data points normalized to the background fluorescence of the well. […] Both cells were washed with HBSS medium twice and then incubated for 10 min at 37 °C in HBSS medium containing 0.1% BSA in the presence or absence of 10 μM evocalcet. Upon the removal of media, cells were incubated in various concentrations of EvoSiR4 and EvoSiR6 in HBSS containing 0.1% BSA for 30 min at 37 °C and were subsequently washed 3 times with 0.1% BSA and resuspended in DMSO before the fluorometric measurement. The fluorescence was measured using a Tecan GENios pro microplate reader with the following parameters: λex = 612 nm, λem = 670 nm, gain = 50 AU. Data for the EvoSiR probes and the evocalcet competition is reported as CaSR-specific fluorescence, which was calculated by dividing the absolute fluorescence of the HCAR cells with the absolute fluorescence of the CCL39 cells for each concentration.

human CaSR [2] = target: T1, human CaSR; assay: CaSR binding affinity estimated from differential fluorescence between HCAR (CaSR+) and CCL39 (CaSR-) cells
Method: as §1

[3] = Photophysical characterization; assay type: physicochemical; design: λex / λem: unit not given here; conditions: for quantum yield Φ: 94% ethanol, 750 nM, relative to Rhodamine B; for λem / λex: Table 1; for extinction coefficient ε: absorbance at 150–1350 nM, 1 cm cuvette
[4] = system: human parathyroid adenomas; assay: Ex vivo labeling of surgically resected human parathyroid adenomas
Method: The part of the study involving human tissues has been registered at clinicaltirals.gov and can be retrieved under the ID: NCT03831620. The study was approved by the ethics commission of canton Bern, Switzerland (KEKBE 2018–02218). Written informed consent was obtained from all patients. Human parathyroid tissues were surgically resected and were immediately put on dry ice and stored at −80 °C. The tissues were thawed at 4 °C and were washed with PBS thoroughly. The labeling of the tissues was achieved using 500 nM EvoSiR4 for 30 min in PBS containing 0.1% BSA. After labeling, the tissues were washed twice with PBS containing 0.1% BSA. For evocalcet competition experiments, the tissues were coincubated with EvoSiR4 and evocalcet in a 1:5 molar ratio for 30 min and then washed twice with PBS containing 0.1% BSA. The images were acquired using an IVIS Spectrum in vivo imaging system with a λex of 780 nm and λem of 840 nm for the autofluorescence (ICG channel) and with a λex of 650 nm and λem of 670 nm for the EvoSiR label (Cy5 channel).

[5] = EC50, positive allosteric modulation of CaSR activity, HCAR cells, response to addition of 0.5 mM CaCl2, no BSA

SMILES | EC50 (human CaSR [1]; [5]) | EC50 (human CaSR [1]; EC50 in 0.1% BSA, 0.1% BSA) | EC50 (human CaSR [1]; EC50 in 0.5% BSA, 0.5% BSA) | EC50 (human CaSR [1]; EC50 in 1% BSA, 1% BSA) | fold improvement in potency toward CaSR compared to evocalcet (human CaSR [1]) | fold increase in potency toward CaSR compared to the evocalcet-linker conjugate (human CaSR [1]) | fold reduction in the EC50 value upon washing with HBSS (human CaSR [1]; incubated in 1% BSA, washed with HBSS upon 10 min incubation) | Kd (human CaSR [2]) | fluorescence lifetime τ [3] | quantum yield Φ [3] | λem [3] | λex [3] | extinction coefficient ε [3] | concentration above which marked increase in tissue fluorescence ([4]; 650 nm excitation) | EC50 (human CaSR [1]; HCAR cells, response to addition of 0.5 mM CaCl2, no BSA, read-out: EC50, positive allosteric modulation of CaSR activity) | effect of preincubation on CaSR-specific increase in relative fluorescence of EvoSiR probes (human CaSR [2]; 10 μM evocalcet preincubation) | decrease in tissue fluorescence upon evocalcet competition ([4]; 500 nM EvoSiR4 co-administered with 2.5 μM evocalcet)
Cc1cc(C(=O)NCCCCNC(=O)Cc2ccc(N3CC[C@H](N[C@H](C)c4cccc5ccccc45)C3)cc2)ccc1C1=C2C=CC(=[N+](C)C)C=C2[Si](C)(C)c2cc(N(C)C)ccc21 [EvoSiR4] | < 45 nM and ~40 nM and 38 nM | 64 ± 12 nM | 102 ± 34 nM | 106 ± 42 nM | 6 fold | 3 fold | 10 fold | 53.6 ± 18.4 nM | 2.43 ± 0.164 ns | 0.288 | 670 | 650 | 14,175 M^–1 cm^–1 | > 500 nM | – | – | –
Cc1cc(C(=O)NCCCCCCNC(=O)Cc2ccc(N3CC[C@H](N[C@H](C)c4cccc5ccccc45)C3)cc2)ccc1C1=C2C=CC(=[N+](C)C)C=C2[Si](C)(C)c2cc(N(C)C)ccc21 [EvoSiR6] | < 45 nM and ~40 nM and 42 nM | – | – | – | 6 fold | 3 fold | – | 71 ± 9.56 nM | 2.33 ± 0.135 ns | 0.278 | 670 | 650 | 16,601 M^–1 cm^–1 | – | – | – | –
C[C@@H](N[C@H]1CCN(c2ccc(CC(=O)O)cc2)C1)c1cccc2ccccc12 [evocalcet] | – | – | – | – | – | – | – | – | – | – | – | – | – | – | 243 ± 15 nM | completely abolished | 64%
